From article PMC9887192, “Lethal activity of BRD4 PROTAC degrader QCA570 against bladder cancer cells” (Frontiers in Chemistry, 2023)

Target: BRD4 (Homo sapiens, UniProt O60885)
Assay: PROTAC degradation in bladder cancer cells by Western blot; blocked by JQ1, MG132 and MLN4924
Format: cell-based

Q: Which DC50 does the source give for Cc1nnc2n1-c1sc(C#Cc3cnn(CCCC#Cc4cccc5c4CN(C4CCC(=O)NC4=O)C5=O)c3)c(Cc3ccccc3)c1COC2 (stereo not shown) [QCA570] here?
A: Its DC50 is roughly 1 nM.
